Experimental findings from US3932384A, “Dibenzazecines” (Shionogi & Co., Ltd., priority 1972, dated 1976) are described below.

In data set [1] the test system is DS-mice. The data set can be described thus: Analgesic activity (Writhing method), phenylquinone-induced writhing in mice. Type of data set: in vivo. As to conditions: Mus musculus, ip, 0.25 h, phenylquinone i.p. 0.2 mg/10 g, 15 minutes, up-and-down method, read-out: Analgesic action, Writhing (ED50). The protocol: 1. Analgesic activity (Writhing method);
DS-mice (15 to 17 g body weight, male and female) are treated with an intraperitoneal injection of 0.2 mg/10 g of 0.02 % phenylquinone solution as a writhing inducer and kept in an individual observation cage for 15 minutes after the administration of phenylquinone. […] The ED50 is calculated by the up-and-down method of Brownlee et al. [Fed.
A general note: An intraperitoneal irritant provokes the stretching counted in writhing tests.

Data set [2] relates to DS-mice. Briefly: Analgesic activity (Haffner method), tail-root pinch in mice. As to conditions: Mus musculus, tail-root pinch with forceps, no withdrawal response within 3 seconds, Bliss' method, read-out: Analgesic action, Haffner (ED50). Type of data set: in vivo. The protocol:
2. Analgesic activity (Haffner method);
The tail-roots of DS-mice (15 to 17 g body weight, male and female) are pinched with a pair of forceps. Pain responses, such as biting, head turning and vocalization are observed. All of the control animals respond to the noxious stimulus with in a period of one second. […] The ED50 is calculated by the Bliss' method [Ann. Appl. Biol., 22, 134; 307 (1935); Quat. J. Pharmacol., 11, 192 (1938)].

A short description of data set [3]: Acute toxicity (mortality, LD50) in mice. The following applies: mouse, in vivo; DS-mice; mortality during 72 hours after administration; Bliss' method. The protocol: Ten DS-mice (15 to 17 g body weight, male and female) in every group are used in the test at each dose level. Each assay compound is tested in 4 to 5 doses. The mortality is counted during a period of 72 hours after the administration of the test compound. The LD50 is calculated by the Bliss' method.

For orientation: ED50 means the dose that gives a 50% effect, or the effect in half of the subjects. Usually LD50 stands for the dose at which mortality reaches 50%. On to `Cc1c(N(C)C)c(=O)n(-c2ccccc2)n1C` [Aminopyrine, reference compound], for which the results for the ED50 in data set [1] and in data set [2] were 44 mg/kg and 138 mg/kg, respectively. In data set [3], this compound showed an LD50 at 72 h of 335 mg/kg.

Regarding `CN1CCc2ccc(O)cc2CCc2ccc(O)c(O)c2C1` [Compound 1], in data set [1], the ED50 worked out at 26 mg/kg. This compound also gave an LD50 at 72 h in data set [3] of 50 to 100 mg/kg.

Consider `COc1ccc2c(c1OC)CN(C)CCc1ccc(O)cc1CC2` [Compound 2, 3,4-Dimethoxy-11-hydroxy-6-methyl-5,6,7,8.13,14-hexahydrodibenz[c,g]azecine], for which the ED50 worked out at 23.2 mg/kg in data set [1] and 58 mg/kg in data set [2]. Further, in data set [3], the LD50 at 72 h is 54.9 mg/kg.

For `COc1ccc2c(c1OC)CN(C)CCc1cc(O)ccc1CC2` [Compound 3, 3,4-Dimethoxy-10-hydroxy-6-methyl-5,6,7,8,13,14-hexahydrodibenz[c,g]azecine], the ED50 in data set [1] stood at 22.3 mg/kg; in data set [2], 37.9 mg/kg. This compound also showed a median lethal dose (LD50) at 72 h in data set [3] of 231 mg/kg.

As for `COc1ccc2c(c1OC)CN(C)CCc1cc(CO)c(O)cc1CC2` [Compound 4, 3,4-dimethoxy-11-hydroxy-10-hydroxymethyl-6-methyl-5,6,7,8,13,14-hexahydrodibenz[c,g]azecin], the ED50 in data set [1] worked out at 45 mg/kg. In data set [3], this compound gave an LD50 at 72 h above 500 mg/kg.

In the case of `CN1CCc2ccc(O)cc2CCc2cccc(O)c2C1.[O-][Cl+3]([O-])([O-])O` [Compound 5, 4,11-Dihydroxy-6-methyl-5,6,7,8,13,14-hexahydrodibenz[c,g]azecine perchlorate], the ED50 in data set [1] stood at 50 mg/kg. In data set [3], the LD50 at 72 h came to 300 mg/kg.

On to `Br.CN1CCc2cc(O)ccc2CCc2ccc(O)c(O)c2C1` [Compound 6, 6-Methyl-3,4,10-trihydroxy-5,6,7,8,13,14-hexahydrodibenz[c,g]azecine hydrobromide], for which the ED50 in data set [1] was 75 mg/kg. For the same compound, the median lethal dose (LD50) at 72 h in data set [3] was 300 mg/kg.

On to `COc1ccc2c(c1OC)CNCCc1cc(O)ccc1CC2` [Compound 7, 3,4-dimethoxy-10-hydroxy-5,6,7,8,13,14-hexahydrodibenz[c,g]azecine], for which the ED50 is 26.5 mg/kg in data set [1] and 250 mg/kg in data set [2]. For the same compound, the LD50 at 72 h in data set [3] amounted to 500 mg/kg.
